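Tested at 5 concentrations; 48 h exposure; 96-well plates; endpoints linearly interpolated, else capped at highest concentration. Abbreviation: GI50, concentration required for 50% inhibition of growth. TGI denotes the concentration required for complete inhibition of growth.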

Test systems include P388 leukemia; DMS 114 small cell lung; P388/ADR leukemia; SNB-78 CNS; SN12K1 renal; M19-MEL melanoma; HOP-18 NSCLC; XF 498 CNS; DMS 273 small cell lung; RXF-631 renal; KM20L2 colon.
Assay in all cases: NCI tumour cell line growth inhibition, 48 h

In the case of `Cc1ccc(N2C(=O)C3CSCN3C2=O)cc1` (stereo not drawn), the TGI in the assay with P388 leukemia, in the assay on DMS 114 small cell lung, in the assay on P388/ADR leukemia, with SNB-78 CNS, with SN12K1 renal and with M19-MEL melanoma was over 100 µM each time. For the same molecule, the TGI in the assay on HOP-18 NSCLC and in the assay on XF 498 CNS was over 100 µM in each case. Besides, the GI50 in the assay on SNB-78 CNS is over 100 µM.

Consider `Cc1cc2c(=O)c3ccc(Cl)cc3[nH]c2c(C(N)=O)c1C`, for which the TGI with DMS 273 small cell lung is over 100000 nM; in the assay with DMS 114 small cell lung, over 100 µM; in the assay on SNB-78 CNS, over 100 µM; with M19-MEL melanoma, over 100 µM; in the assay with RXF-631 renal, over 100000 nM; in the assay on XF 498 CNS, over 100 µM. Also, in the assay on KM20L2 colon, the TGI was over 100 µM.

In the case of `CCC1=C(C[C@H]2NCCc3cc(OC)c(OC)cc32)C[C@H]2c3cc(OC)c(OC)cc3CCN2C1`, the TGI is 109 nM in the assay with DMS 273 small cell lung; 0.0598 µM in the assay on DMS 114 small cell lung; 1.32 µM in the assay with SNB-78 CNS; 0.0983 µM with M19-MEL melanoma; over 100 µM with HOP-18 NSCLC; 1430 nM with RXF-631 renal. In the assay on KM20L2 colon, this molecule yielded a TGI of 0.14 µM.

For `O=C1c2ccncc2C(=O)c2c(O)ccc(O)c21`, the TGI in the assay on DMS 114 small cell lung worked out at 13 µM; with M19-MEL melanoma, 9.58 µM; with HOP-18 NSCLC, 25.5 µM; in the assay with XF 498 CNS, 15.2 µM; in the assay on KM20L2 colon, 8.12 µM.

The record behind these values is PubChem BioAssay (NCI).
